According to patent US11320438B2, “Isotopic methods for measurement of tryptophan and metabolites thereof” (ELECTROPHORETICS LIMITED, priority 2015, dated 2022):

Legend:
[1] = target: T1, aryl hydrocarbon receptor (Homo sapiens, UniProt P35869); experiment: qRT-PCR of AHR target genes in SKOV-3 cells; format: cell-based
T1 construct: Treatment of SKOV-3 cells with 1-D/L-MT under tryptophan-free conditions induced the AHR target genes CYP1A1 and TIPARP; endogenous in cells; host or cells: SKOV-3 ovarian carcinoma cells
T1 sequence (P35869 11-848): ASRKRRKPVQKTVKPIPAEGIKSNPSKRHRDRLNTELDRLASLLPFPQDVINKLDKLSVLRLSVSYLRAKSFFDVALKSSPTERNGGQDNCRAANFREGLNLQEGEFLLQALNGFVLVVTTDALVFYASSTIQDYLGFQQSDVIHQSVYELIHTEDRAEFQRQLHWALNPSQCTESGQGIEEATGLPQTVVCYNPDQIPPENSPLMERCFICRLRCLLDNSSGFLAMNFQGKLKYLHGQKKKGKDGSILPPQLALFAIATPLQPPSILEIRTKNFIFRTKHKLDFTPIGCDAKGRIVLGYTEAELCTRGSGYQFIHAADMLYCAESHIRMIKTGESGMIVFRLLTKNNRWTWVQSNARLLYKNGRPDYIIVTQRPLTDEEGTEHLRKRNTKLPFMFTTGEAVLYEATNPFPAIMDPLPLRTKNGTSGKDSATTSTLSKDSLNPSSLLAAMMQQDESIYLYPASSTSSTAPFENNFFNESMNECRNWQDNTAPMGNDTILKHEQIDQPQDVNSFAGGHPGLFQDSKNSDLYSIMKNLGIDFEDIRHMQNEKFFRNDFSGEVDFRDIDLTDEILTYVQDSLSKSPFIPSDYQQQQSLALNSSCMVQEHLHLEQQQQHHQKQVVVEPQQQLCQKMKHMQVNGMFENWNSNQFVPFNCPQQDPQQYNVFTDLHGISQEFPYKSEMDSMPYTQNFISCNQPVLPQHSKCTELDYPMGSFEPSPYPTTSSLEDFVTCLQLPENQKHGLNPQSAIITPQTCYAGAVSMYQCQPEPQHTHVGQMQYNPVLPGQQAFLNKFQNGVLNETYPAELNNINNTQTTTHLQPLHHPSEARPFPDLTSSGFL
Procedure: (§1) SKOV-3 ovarian carcinoma cells were cultured in McCoy's 5A Medium (BioConcept, Allschwil, Switzerland) supplemented with L-Tryptophan as indicated (Sigma-Aldrich, Taufkirchen, Germany), 300 mg/l Glutamine (Carl Roth, Karlsruhe, Germany), 10% FBS (Thermo Fisher Scientific Inc., Waltham, Mass., USA) and 100 U/mL penicillin and 100 μg/mL streptomycin (PAA Laboratories, Pasching, Austria). Human embryonic kidney (HEK) cells were cultured in DMEM (PAA Laboratories), 10% FBS (Thermo Scientific) and 100 U/mL penicillin and 100 μg/mL streptomycin (PAA Laboratories). Peripheral blood mononuclear cells (PBMC) were isolated from healthy, non-related blood-donors by density-gradient centrifugation using lymphocyte separation medium LSA 1077 (PAA Laboratories) and cultured in RPMI 1640 (PAA Laboratories) containing 10% FBS (Thermo Fisher Scientific Inc) and 100 U/mL penicillin and 100 μg/mL streptomycin (PAA Laboratories). For the generation of dendritic cells (DC), CD14+ cells were separated using the magnetic activated cell sorting (MACS) technology (Miltenyi Biotec, Bergisch Gladbach, Germany) and plated in RPMI 1640 (Cambrex, Verviers, Belgium) containing 10% FBS, 200 IU/mL interleukin-4 and 1000 IU/mL GM-CSF (Immunotools, Friesoythe, Germany) for 7 days. All cells were routinely tested for contamination by the Multiplex cell Contamination Test (44). Cultures were incubated at 37° C. in a 5% CO2 atmosphere. […]
Total RNA was isolated with the Qiagen RNAeasy RNA isolation kit (Hilden, Germany) and cDNA was synthesized with the Applied Biosystems reverse-transcription-Kit (Foster City, USA) according to manufacturer's instructions. […] The size of the amplicons was analyzed by loading the samples and a 100 bp ladder (Invitrogen, Leek, Netherlands) on a 2% agarose gel, which was then stained with ethidium bromide and analyzed under UV light. […] Relative quantification of gene expression was determined by comparison of threshold values. […]

TDO = target: T2, TDO (Homo sapiens, UniProt P48775); experiment: Degradation in supernatants of HEK cells expressing TDO; format: in vitro ADME; settings: day 0 vs day 6
T2 construct: expressed in transfected cells; host or cells: HEK293 cells, neomycin-selected
Procedure: SKOV-3 ovarian carcinoma cells were cultured in McCoy's 5A Medium (BioConcept, Allschwil, Switzerland) supplemented with L-Tryptophan as indicated (Sigma-Aldrich, Taufkirchen, Germany), 300 mg/l Glutamine (Carl Roth, Karlsruhe, Germany), 10% FBS (Thermo Fisher Scientific Inc., Waltham, Mass., USA) and 100 U/mL penicillin and 100 μg/mL streptomycin (PAA Laboratories, Pasching, Austria). Human embryonic kidney (HEK) cells were cultured in DMEM (PAA Laboratories), 10% FBS (Thermo Scientific) and 100 U/mL penicillin and 100 μg/mL streptomycin (PAA Laboratories). […] All cells were routinely tested for contamination by the Multiplex cell Contamination Test (44). Cultures were incubated at 37° C. in a 5% CO2 atmosphere.
The full length cDNA sequence of IDO1 and TDO was cloned via Gateway® cloning into pDEST-Flag-C, a Gateway® compatible overexpression vector containing a single C-terminal FLAG-tag, resulting in pDEST-TDO-FLAG-C and pDEST-IDO1-FLAG-C.
Basis for the pDEST-FLAG-C was the pDEST26 vector (Invitrogen). The 6×His-tag of pDEST26 was removed with site-directed mutagenesis PCR, resulting in pDEST. The single C-terminal Flag-tag was introduced into pDEST, by site-directed mutagenesis PCR, resulting in Flag-C. […] Cells were selected using 1.5 mg/ml neomycin (Sigma-Aldrich).
(§2) 50 μL of each single cell culture supernatant was labelled with TMT® sixplex reagents (Thermo Fisher Scientific).
(§3) Samples were either measured on a QTof II (Waters) mass spectrometer coupled to an UPLC nanoLC (Waters) on an LTQ Orbitrap Velos Pro (Thermo Scientific) coupled to a Proxeon nanoLC-II (Thermo Scientific) or a triple quadrupole system coupled to nanoLC-II (EASY-nLC II TSQ Vantage system). The samples were resolved in 150 μl 2% ACN, 0.1% formic acid (1 μL sample=1 μL mixed supernatant equivalent).

SKOV-3 cells = experiment: Degradation of tryptophan and 1-MT in SKOV-3 cell culture supernatants (TMT sixplex LC-MS/MS); format: in vitro ADME, human; settings: for degradation to methyl-kynurenine: days 0-6, 1000 μM 1-MT with 70 μM tryptophan, or 200 μM 1-MT with no added tryptophan; for depletion of the substance from the media: after 6 days of incubation
Procedure: (§4) SKOV-3 ovarian carcinoma cells were cultured in McCoy's 5A Medium (BioConcept, Allschwil, Switzerland) supplemented with L-Tryptophan as indicated (Sigma-Aldrich, Taufkirchen, Germany), 300 mg/l Glutamine (Carl Roth, Karlsruhe, Germany), 10% FBS (Thermo Fisher Scientific Inc., Waltham, Mass., USA) and 100 U/mL penicillin and 100 μg/mL streptomycin (PAA Laboratories, Pasching, Austria). Human embryonic kidney (HEK) cells were cultured in DMEM (PAA Laboratories), 10% FBS (Thermo Scientific) and 100 U/mL penicillin and 100 μg/mL streptomycin (PAA Laboratories). Peripheral blood mononuclear cells (PBMC) were isolated from healthy, non-related blood-donors by density-gradient centrifugation using lymphocyte separation medium LSA 1077 (PAA Laboratories) and cultured in RPMI 1640 (PAA Laboratories) containing 10% FBS (Thermo Fisher Scientific Inc) and 100 U/mL penicillin and 100 μg/mL streptomycin (PAA Laboratories). For the generation of dendritic cells (DC), CD14+ cells were separated using the magnetic activated cell sorting (MACS) technology (Miltenyi Biotec, Bergisch Gladbach, Germany) and plated in RPMI 1640 (Cambrex, Verviers, Belgium) containing 10% FBS, 200 IU/mL interleukin-4 and 1000 IU/mL GM-CSF (Immunotools, Friesoythe, Germany) for 7 days. All cells were routinely tested for contamination by the Multiplex cell Contamination Test (44). Cultures were incubated at 37° C. in a 5% CO2 atmosphere. 20 mM stock solutions (of 1-methyl-D-tryptophan (1-D-MT, lot numbers: 09315BH, 08007EJ) and 1-methyl-L-tryptophan (1-L-MT, lot numbers: 08023HE, 15399MJ) (Sigma-Aldrich) were prepared by dissolving the inhibitors in 0.1 N NaOH. The pH was adjusted to 7.5 using hydrochloric acid. To avoid contamination of the cell cultures, the stock solutions were filtered through 0.2 μm filters. Interferon-gamma (IFN-g) was purchased from Immunotools (Friesoythe, Germany).
as §2
The dry TMT® sixplex mixtures were reconstituted in 300 μL of water:acetonitrile 95:5 with 0.1% trifluoroacetic acid (buffer A). 150 μL were fractionated by reversed phase chromatography (Nucleosil 120-5 C18 column, 250 mm×4.6 mm, Macherey Nagel) using a Waters 2695 HPLC with UV detection at 214 nm. After loading, the sample was washed 4 min with buffer A. Then, the substances were eluted by increasing the acetonitrile content within 40 min to 55%. The flow rate was kept at 1.5 mL/min over the entire gradient. The fraction from 18-30 minutes was collected and dried.
as §3
The SIM m/z range was from 350-500 Th with a resolution of 60000 and an AGC setting of 5e4 with a maximum scan time of 500 ms. MS/MS was acquired as TOP10 in HCD mode with a resolution of 7500 and an AGC setting of 5e4 with a maximum scan time of 500 ms. Isolation width was 1.5 amu and normalized collision energy was 60. The default charge state of the precursor was set to z=1. All other charge states were rejected. Analytes of interest were acquired in MSMS mode using an inclusion list only mode (±50 ppm) and all other analytes not included in the list were discarded.

human dendritic cells = experiment: 1-MT degradation in interferon-gamma stimulated human dendritic cells; format: in vitro ADME; settings: IFN gamma, after 6 days of incubation
Procedure: as §4, §2, §3
Immune cells can also express tryptophan-degrading enzymes and tryptophan degradation is known to exert potent immunosuppressive effects (9). To assess whether also immune cells, such as dendritic cells, degrade 1-MT to methyl-kynurenine, three independent biological samples of supernatants of human dendritic cells from two different donors were analysed (only donor 1 shown). […]

HEK control cells (WT) = experiment: Degradation in supernatants of HEK control cells (WT); format: in vitro ADME, human; settings: data not shown
Procedure: as §1, with “Laboratories).” for “Laboratories). For the generation of dendritic cells (DC), CD14+ cells were separated using the magnetic activated cell sorting (MACS) technology (Miltenyi Biotec, Bergisch Gladbach, Germany) and plated in RPMI 1640 (Cambrex, Verviers, Belgium) containing 10% FBS, 200 IU/mL interleukin-4 and 1000 IU/mL GM-CSF (Immunotools, Friesoythe, Germany) for 7 days. All cells were routinely tested for contamination by the Multiplex cell Contamination Test (44). Cultures were incubated at 37° C. in a 5% CO2 atmosphere.”
Samples were either measured on a QTof II (Waters) mass spectrometer coupled to an UPLC nanoLC (Waters) on an LTQ Orbitrap Velos Pro (Thermo Scientific) coupled to a Proxeon nanoLC-II (Thermo Scientific) or a triple quadrupole system coupled to nanoLC-II (EASY-nLC II TSQ Vantage system). […]

[2] = Serum analysis of LPS-stimulated mice injected with 1-L-MT; settings: 1 mg/mouse 1-L-MT i.p.
Procedure: Animal work was supervised by institutional animal protection officials in accordance with the National Institute of Health guidelines Guide for the Care and Use of Laboratory Animals. C57BL/6N mice were purchased from Charles River (Sulzfeld, Germany). […] The blood was centrifuged to obtain serum, which was finally prepared for LC-MS/MS measurements.
50 μL of serum sample was precipitated with 50 μL TCA-solution (60 g/l) at 4° C. overnight. The suspension was centrifuged for 15 minutes at 4° C. at 6000 g. The pellet was discarded and the supernatant used for further experiments after neutralization with 1 M NaOH to pH 7-8.
66 μL of each precipitated and neutralized mouse serum sample were diluted with 6 μL of 1M triethylammonium bicarbonate (TEAB, Sigma-Aldrich) and then 24 μL of a 60 mM TMT reagent stock solution in ACN (LichroSolv, VWR) were added. The reaction was incubated for 1 hour at room temperature and finally quenched by adding 12 μL of 2.5% aqueous hydroxylamine solution (Sigma-Aldrich). The respective six labelled serum samples to be compared were mixed and dried.
For the Orbitrap MS runs the mixed mouse serum sample was dissolved in 2% ACN, 0.1% formic acid and ˜0.88 μL of mixed serum equivalent was loaded on column.

[3] = SKOV-3 cells, tryptophan-free conditions, qRT-PCR

T2 sequence (P48775 whole entry): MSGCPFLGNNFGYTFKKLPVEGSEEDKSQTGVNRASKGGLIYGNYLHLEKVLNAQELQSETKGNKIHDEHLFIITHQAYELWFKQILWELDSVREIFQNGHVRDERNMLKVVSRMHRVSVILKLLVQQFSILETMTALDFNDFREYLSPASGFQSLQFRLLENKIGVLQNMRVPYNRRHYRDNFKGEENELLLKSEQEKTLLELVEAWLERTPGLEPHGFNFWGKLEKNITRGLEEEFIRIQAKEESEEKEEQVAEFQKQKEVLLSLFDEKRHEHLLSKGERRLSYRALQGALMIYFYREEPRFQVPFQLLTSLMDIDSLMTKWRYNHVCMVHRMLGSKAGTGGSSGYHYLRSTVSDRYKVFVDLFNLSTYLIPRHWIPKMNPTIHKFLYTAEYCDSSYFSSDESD

Cn1cc(CC(N)C(=O)O)c2ccccc21 [1-D/L-MT]
induction of AHR target gene CYP1A1 [1, 3]: induced | induction of AHR target gene TIPARP [1, 3]: induced

CNc1ccccc1C(=O)C[C@H](N)C(=O)O [methyl-kynurenine, (S)—N-methyl kynurenine]
activation of the AHR ([1]; inferred from treatment of SKOV-3 cells with 1-D/L-MT): capable of activating the AHR

Cn1cc(C[C@@H](N)C(=O)O)c2ccccc21 [1-D-MT, 1-methyl-D-tryptophan]
increase in methyl-kynurenine after treatment (TDO): not | metabolism of tryptophan to kynurenine in treated samples (SKOV-3 cells; D-MT compared with L-MT samples): more quickly and higher kynurenine levels were reached | degradation to methyl-kynurenine (SKOV-3 cells): degraded to methyl-kynurenine | methyl-kynurenine in the media (human dendritic cells): increase in methyl-kynurenine | reduction of substrate in the media (human dendritic cells): no clear reduction

Cn1cc(C[C@H](N)C(=O)O)c2ccccc21 [1-MT, 1-methyl-tryptophan]
degradation / decrease of substrate in cell supernatants (TDO): no decrease | degradation by HEK control cells (HEK control cells (WT)): degraded neither

N[C@@H](Cc1c[nH]c2ccccc12)C(=O)O [L-tryptophan]
depletion of the substance from the media (SKOV-3 cells): completely depleted

N[C@H](Cc1c[nH]c2ccccc12)C(=O)O [D-tryptophan]
depletion of the substance from the media (SKOV-3 cells): not entirely depleted

Cn1cc(C[C@H](N)C(=O)O)c2ccccc21 [1-L-MT, 1-methyl-L-tryptophan]
increase in methyl-kynurenine after treatment (TDO): very slight increase | depletion of the substance from the media (SKOV-3 cells): completely depleted | degradation to methyl-kynurenine (SKOV-3 cells): degraded more quickly than 1-D-MT | serum methyl-kynurenine versus mice treated with LPS alone [2]: significantly higher concentrations of methyl-kynurenine | methyl-kynurenine in the media (human dendritic cells): increase in methyl-kynurenine | reduction of substrate in the media (human dendritic cells): reduction

N[C@@H](Cc1c[nH]c2ccccc12)C(=O)O [tryptophan]
degradation / decrease of substrate in cell supernatants (TDO): degraded tryptophan to kynurenine | degradation by HEK control cells (HEK control cells (WT)): degraded neither
